Measured values reported in patent US10899737B2, “Piperazine carbamates and methods of making and using same” (Lundbeck La Jolla Research Center, Inc., priority 2016, dated 2021).

How the values were obtained:
[1] = molecular target: T1, MAGL (Homo sapiens, UniProt Q99685); assay: In vitro competitive activity-based protein profiling (human), MAGL; format: biochemical; details: for inhibition at 1 µM: 1 μM inhibitor, human proteome, 30 min preincubation at 37° C, read-out: MAGL % inh. 1 μM (human); for IC50: human PC3
T1 construct: Proteomes (human prefrontal cortex or cell membrane fractions); from tissue
T1 sequence (Q99685 1-303): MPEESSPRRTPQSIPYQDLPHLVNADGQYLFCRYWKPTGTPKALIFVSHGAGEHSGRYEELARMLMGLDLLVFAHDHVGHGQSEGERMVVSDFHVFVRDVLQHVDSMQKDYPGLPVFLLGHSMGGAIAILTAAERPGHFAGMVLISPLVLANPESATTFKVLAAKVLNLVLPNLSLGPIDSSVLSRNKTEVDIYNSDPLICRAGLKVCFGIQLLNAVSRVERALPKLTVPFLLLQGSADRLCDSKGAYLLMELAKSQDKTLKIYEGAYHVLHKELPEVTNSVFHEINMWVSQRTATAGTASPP
How it was run: (§1)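 Human prefrontal cortex or cell membrane proteomes (1.0-2.0 mg/mL protein) preincubated 30 min at 37° C with inhibitor, then labeled 30 min RT with FP-Rh or JW912 probe. After SDS-PAGE, activity taken from fluorescent band intensity for each enzyme.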

[2] = molecular target: T2, ABHD6 (Homo sapiens, UniProt Q9BV23); assay: In vitro competitive activity-based protein profiling (human), ABHD6; format: biochemical; details: human PC3
T2 construct: Proteomes (human prefrontal cortex or cell membrane fractions); endogenous in cells; human prefrontal cortex
T2 sequence (Q9BV23 1-337): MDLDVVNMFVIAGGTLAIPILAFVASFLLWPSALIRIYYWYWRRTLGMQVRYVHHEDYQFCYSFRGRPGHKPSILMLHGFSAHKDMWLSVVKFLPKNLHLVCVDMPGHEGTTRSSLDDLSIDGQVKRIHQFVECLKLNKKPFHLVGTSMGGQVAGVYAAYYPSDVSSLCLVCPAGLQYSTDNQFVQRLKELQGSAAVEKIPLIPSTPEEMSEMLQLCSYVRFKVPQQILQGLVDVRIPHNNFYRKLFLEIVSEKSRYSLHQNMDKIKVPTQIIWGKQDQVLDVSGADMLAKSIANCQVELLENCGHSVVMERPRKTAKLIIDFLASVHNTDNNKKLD
How it was run: as §1

[3] = molecular target: T3, MAGL (Mus musculus, UniProt O35678); assay: In vitro competitive activity-based protein profiling (mouse), MAGL; format: biochemical; details: for inhibition at 1 µM: 1 μM inhibitor, mouse brain membrane fraction or cell lysates, read-out: MAGL % inh. 1 μM (mouse); for IC50: mouse proteome
T3 construct: Proteomes (mouse brain membrane fraction or cell lysates); from tissue; host or cells: mouse brain membrane fraction or cell lysates
T3 sequence (O35678 1-303): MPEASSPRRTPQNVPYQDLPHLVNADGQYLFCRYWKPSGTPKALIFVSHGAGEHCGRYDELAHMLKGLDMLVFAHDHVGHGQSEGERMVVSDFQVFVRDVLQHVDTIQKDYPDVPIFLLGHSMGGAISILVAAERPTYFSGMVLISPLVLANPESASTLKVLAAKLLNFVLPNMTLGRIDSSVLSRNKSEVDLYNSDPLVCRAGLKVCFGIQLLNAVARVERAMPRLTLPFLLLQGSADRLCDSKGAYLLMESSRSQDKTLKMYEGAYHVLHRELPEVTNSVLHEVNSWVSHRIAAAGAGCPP
How it was run: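 Mouse brain membrane fraction or cell lysate proteomes (50 μL, 1.0 mg/mL total protein) were preincubated with inhibitors at varying concentrations for 30 min at 37° C. FP-Rh (1.0 μL, 50 μM in DMSO) was then added for a further 30 min at 37° C. Samples were quenched with 4× SDS loading buffer and resolved by SDS-PAGE. MAGL activity was quantified from fluorescent gel band intensity using ImageJ 1.49 k.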

[4] = molecular target: T4, ABHD6 (Mus musculus, UniProt Q8R2Y0); assay: In vitro competitive activity-based protein profiling (mouse), ABHD6; format: biochemical; details: 1 μM inhibitor, mouse brain membrane fraction or cell lysates; read-out: ABHD6 % inh. 1 μM (mouse)
T4 construct: Proteomes (mouse brain membrane fraction or cell lysates); from tissue; host or cells: mouse brain membrane fraction or cell lysates
T4 sequence (Q8R2Y0 1-336): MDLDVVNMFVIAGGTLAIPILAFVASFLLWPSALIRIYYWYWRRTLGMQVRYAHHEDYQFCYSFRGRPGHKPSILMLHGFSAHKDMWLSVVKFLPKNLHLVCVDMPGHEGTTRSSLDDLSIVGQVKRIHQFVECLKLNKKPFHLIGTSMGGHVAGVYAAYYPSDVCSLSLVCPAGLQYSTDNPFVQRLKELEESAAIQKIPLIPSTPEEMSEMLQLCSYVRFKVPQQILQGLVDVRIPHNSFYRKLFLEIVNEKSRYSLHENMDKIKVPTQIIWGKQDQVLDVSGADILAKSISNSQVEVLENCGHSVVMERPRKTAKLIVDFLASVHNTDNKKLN
How it was run: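 Mouse brain membrane proteome or cell lysate (1.0 mg/mL protein) preincubated 30 min at 37 °C with inhibitor, then labelled 30 min at 37 °C with FP-rhodamine probe. Remaining MAGL and ABHD6 activity quantified by in-gel fluorescence band intensity after SDS-PAGE; values are % inhibition at 1 μM.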

[5] = molecular target: T3, MAGL; assay: Mouse brain proteomes from inhibitor treated mice, MAGL inhibition; format: in vivo; details: 5 mg/kg oral gavage, C57Bl/6J mouse brain, 4 h following administration; read-out: MAGL % inh. 5 mg/kg (mouse)
Experimental: Preparation of Mouse Brain Proteomes from Inhibitor Treated Mice.
Inhibitors were administered to wild-type C57Bl/6J by oral gavage in a vehicle of polyethylene glycol. Each animal was sacrificed 4 h following administration and brain proteomes were prepared and analyzed according to previously established methods (See Niphakis, M. J., et al. (2011) ACS Chem. Neurosci. and Long, J. Z., et al. Nat. Chem. Biol. 5:37-44).

SMILES	inhibition at 1 µM [1]	IC50 [1]	IC50 [2]	inhibition at 1 µM [3]	inhibition at 1 µM [4]	inhibition at 5 mg/kg [5]	IC50 [3]
O=C(O)[C@@H]1CC(c2cc(C(F)(F)F)ccc2CN2CCN(C(=O)OC(C(F)(F)F)C(F)(F)F)CC2)CN1 (stereo partly drawn) [Example 7, (2S)-4-(2-((4-(((1,1,1,3,3,3-Hexafluoropropan-2-yl)oxy)carbonyl)piperazin-1-yl)methyl)-5-(trifluoromethyl)phenyl)pyrrolidine-2-carboxylic Acid]	≥ 75%	≤ 0.1 µM	1 to 10 µM	≥ 75%	25 to 50%	25 to 50%	–
O=C(O)c1ccsc1-c1cc(C(F)(F)F)ccc1CN1CCN(C(=O)OC(C(F)(F)F)C(F)(F)F)CC1 [Example 8, 2-(2-((4-(((1,1,1,3,3,3-Hexafluoropropan-2-yl)oxy)carbonyl)piperazin-1-yl)methyl)-5-(trifluoromethyl)phenyl)thiophene-3-carboxylic Acid]	≥ 75%	≤ 0.1 µM	1 to 10 µM	≥ 75%	25 to 50%	≥ 75%	–
Cc1cc(C(=O)O)sc1-c1cc(C(F)(F)F)ccc1CN1CCN(C(=O)OC(C(F)(F)F)C(F)(F)F)CC1 [Example 9, 5-(2-((4-(((1,1,1,3,3,3-Hexafluoropropan-2-yl)oxy)carbonyl)piperazin-1-yl)methyl)-5-(trifluoromethyl)phenyl)-4-methylthiophene-2-carboxylic Acid]	≥ 75%	≤ 0.1 µM	1 to 10 µM	≥ 75%	50 to 75%	25 to 50%	–
O=C(O)c1csc(-c2cc(C(F)(F)F)ccc2CN2CCN(C(=O)OC(C(F)(F)F)C(F)(F)F)CC2)c1 [Example 10, 5-(2-((4-(((1,1,1,3,3,3-Hexafluoropropan-2-yl)oxy)carbonyl)piperazin-1-yl)methyl)-5-(trifluoromethyl)phenyl)thiophene-3-carboxylic Acid]	≥ 75%	≤ 0.1 µM	1 to 10 µM	≥ 75%	≥ 75%	0 to 25%	–
O=C(O)Cn1ccc(-c2cc(Cl)ccc2CN2CCN(C(=O)OC(C(F)(F)F)C(F)(F)F)CC2)n1 [Example 12, 2-(3-(5-Chloro-2-((4-(((1,1,1,3,3,3-hexafluoropropan-2-yl)oxy)carbonyl)piperazin-1-yl)methyl)phenyl)-1H-pyrazol-1-yl)acetic Acid]	≥ 75%	≤ 0.1 µM	0.1 to 1 µM	≥ 75%	0 to 25%	0 to 25%	–
O=C(O)Cn1ccc(-c2cc(F)ccc2CN2CCN(C(=O)OC(C(F)(F)F)C(F)(F)F)CC2)n1 [Example 13, 2-(3-(5-Fluoro-2-((4-(((1,1,1,3,3,3-hexafluoropropan-2-yl)oxy)carbonyl)piperazin-1-yl)methyl)phenyl)-1H-pyrazol-1-yl)acetic Acid]	≥ 75%	≤ 0.1 µM	1 to 10 µM	≥ 75%	0 to 25%	0 to 25%	–
O=C(O)CN1CC2CN(c3cc(C(F)(F)F)ccc3CN3CCN(C(=O)OC(C(F)(F)F)C(F)(F)F)CC3)CC2C1 (stereo not drawn) [Example 15, 2-(5-(2-((4-(((1,1,1,3,3,3-Hexafluoropropan-2-yl)oxy)carbonyl)piperazin-1-yl)methyl)-5-(trifluoromethyl)phenyl)hexahydropyrrolo[3,4-c]pyrrol-2(1H)-yl)acetic Acid]	≥ 75%	≤ 0.1 µM	1 to 10 µM	≥ 75%	0 to 25%	0 to 25%	–
O=C(O)CN1CCC2(CC1)CN(c1cc(C(F)(F)F)ccc1CN1CCN(C(=O)OC(C(F)(F)F)C(F)(F)F)CC1)C2 [Example 17, 2-(2-(2-((4-(((1,1,1,3,3,3-Hexafluoropropan-2-yl)oxy)carbonyl)piperazin-1-yl)methyl)-5-(trifluoromethyl)phenyl)-2,7-diazaspiro[3.5]nonan-7-yl)acetic Acid]	≥ 75%	≤ 0.1 µM	1 to 10 µM	≥ 75%	0 to 25%	0 to 25%	–
O=C(O)CN1CCC2(CCN(c3cc(C(F)(F)F)ccc3CN3CCN(C(=O)OC(C(F)(F)F)C(F)(F)F)CC3)CC2)C1 [Example 18, 2-(8-(2-((4-(((1,1,1,3,3,3-Hexafluoropropan-2-yl)oxy)carbonyl)piperazin-1-yl)methyl)-5-(trifluoromethyl)phenyl)-2,8-diazaspiro[4.5]decan-2-yl)acetic Acid]	≥ 75%	≤ 0.1 µM	1 to 10 µM	≥ 75%	50 to 75%	0 to 25%	≤ 0.1 µM
O=C(O)CN1CCC2(CC1)CCN(c1cc(C(F)(F)F)ccc1CN1CCN(C(=O)OC(C(F)(F)F)C(F)(F)F)CC1)C2 [Example 19, 2-(2-(2-((4-(((1,1,1,3,3,3-Hexafluoropropan-2-yl)oxy)carbonyl)piperazin-1-yl)methyl)-5-(trifluoromethyl)phenyl)-2,8-diazaspiro[4.5]decan-8-yl)acetic Acid]	≥ 75%	≤ 0.1 µM	1 to 10 µM	≥ 75%	0 to 25%	0 to 25%	≤ 0.1 µM
O=C(O)CN1CCCC12CCN(c1cc(C(F)(F)F)ccc1CN1CCN(C(=O)OC(C(F)(F)F)C(F)(F)F)CC1)CC2 [Example 20, 2-(8-(2-((4-(((1,1,1,3,3,3-Hexafluoropropan-2-yl)oxy)carbonyl)piperazin-1-yl)methyl)-5-(trifluoromethyl)phenyl)-1,8-diazaspiro[4.5]decan-1-yl)acetic Acid]	≥ 75%	≤ 0.1 µM	1 to 10 µM	≥ 75%	0 to 25%	0 to 25%	–
O=C(O)CN1CC2(CCN(c3cc(C(F)(F)F)ccc3CN3CCN(C(=O)OC(C(F)(F)F)C(F)(F)F)CC3)CC2)C1 [Example 21, 2-(7-(2-((4-(((1,1,1,3,3,3-Hexafluoropropan-2-yl)oxy)carbonyl)piperazin-1-yl)methyl)-5-(trifluoromethyl)phenyl)-2,7-diazaspiro[3.5]nonan-2-yl)acetic Acid]	≥ 75%	≤ 0.1 µM	1 to 10 µM	≥ 75%	0 to 25%	0 to 25%	≤ 0.1 µM
